Read-outs that look alike come from different tables or passages of the source.
Assays:
[1] = molecular target: T1, Recombinant rhinovirus 3C protease, serotype 14 (Human rhinovirus 14, UniProt P03303); test: Inhibition of rhinovirus 3C protease (FRET assay, kobs/[I]), serotype 14; assay type: biochemical; settings: pH 7.6; HRV-14; read-out: kobs/[I] (3C protease inhibition activity)
T1 construct: Recombinant rhinovirus 3C proteases; made in house
Outline: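 Enzyme-start FRET assay with ~1 μM DABCYL/EDANS peptide substrate and 50-100 nM recombinant protease in 50 mM tris pH 7.6, 1 mM EDTA, 2% DMSO. Cleavage followed as fluorescence increase; kobs/[I] derived from progress curves.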

[2] = system: HRV-14; test: Antirhinoviral H1-HeLa cell culture assay (XTT cell protection, EC50), HRV-14; assay type: cell-based, human rhinovirus (HRV) serotype-14 in H1-HeLa cells; settings: Rhinovirus B, HRV14, H1-HeLa
Outline: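 H1-HeLa cells were infected with HRV-14 at m.o.i. 0.13, or mock-infected, and incubated with compound for two days. Cell protection was read by XTT/PMS formazan absorbance at 450/650 nm to give EC50. CC50 came from mock-infected cells, and TI = CC50/EC50.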

[3] = system: strains of human rhinovirus (HRV); test: Antirhinoviral H1-HeLa cell culture assay (XTT cell protection, EC50), other HRV strains; assay type: cell-based, human rhinovirus in H1-HeLa cells; settings: read-out: EC50
Description: Antirhinoviral H1-HeLa Cell Culture Assay:
In this cell protection assay, the ability of compounds to protect cells against HRV infection was measured by the XTT dye reduction method, which is described in Weislow et al., J. Natl. Cancer Inst. (1989), vol. 81, 577-586. H1-HeLa cells were infected with HRV-14 at a multiplicity of infection (m.o.i.) of 0.13 (virus particles/cell) or mock-infected with medium only. Infected or mock-infected cells were resuspended at 8×10^5 cells per mL, and incubated with appropriate concentrations of the compounds to be tested. Two days later, XTT/PMS was added to test plates and the amount of formazan produced was quantified spectrophotometrically at 450/650 nm. […] The therapeutic index (TI) was calculated by dividing the CC50 value by the EC50 value.
All strains of human rhinovirus (HRV) for use in this assay were purchased from American Type Culture Collection (ATCC), except for HRV serotype-14 (produced from the infectious cDNA clone constructed by Dr. Robert Rueckert, Institute for Molecular Virology, University of Wisconsin, Madison, Wis.). HRV stocks were propagated and viral assays were performed in H1-HeLa cells (ATCC). Cells were grown in minimal essential medium with 10% fetal bovine serum, available from Life Technologies (Gaithersburg, Md.).

[4] = Cytotoxicity (CC50) in mock-infected H1-HeLa cells, XTT dye reduction; assay type: cell-based, human; settings: human, H1-HeLa cells, mock-infected; line of HRV-14
Outline: (§1)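 H1-HeLa cells mock-infected, read by XTT/PMS formazan at 450/650 nm.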

[5] = system: H1-HeLa cells; test: as above; assay type: cell-based, human
Outline: as §1

[6] = Human rhinovirus sp., HRV10, H1-HeLa, HRV-10
[7] = Human rhinovirus sp., HRV3, H1-HeLa, HRV-3
[8] = Human rhinovirus sp., HRV9, H1-HeLa, HRV-9
[9] = Human rhinovirus sp., HRV16, H1-HeLa, HRV-16
[10] = Human rhinovirus sp., HRV25, H1-HeLa, HRV-25
[11] = Human rhinovirus sp., HRV39, H1-HeLa, HRV-39
[12] = Human rhinovirus sp., HRV87, H1-HeLa, HRV-87

T1 sequence (P03303 1538-1719): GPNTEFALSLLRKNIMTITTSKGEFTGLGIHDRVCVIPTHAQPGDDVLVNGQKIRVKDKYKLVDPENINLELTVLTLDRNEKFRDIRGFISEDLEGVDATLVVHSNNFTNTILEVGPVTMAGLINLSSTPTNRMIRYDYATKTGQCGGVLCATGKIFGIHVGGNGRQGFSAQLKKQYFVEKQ

Compound | kinact/KI [1] | EC50 ([3]; H1-HeLa, HRV-1A) | EC50 [3, 6] | CC50 at 2 days [4] | CC50 ([5]; line of HRV-1A) | CC50 ([5]; line of HRV-10) | EC50 [2] | EC50 ([3]; H1-HeLa, HRV-2) | EC50 [3, 7] | EC50 [3, 8] | EC50 [3, 9] | EC50 [3, 10] | EC50 [3, 11] | EC50 [3, 12] | CC50 ([5]; line of HRV-2) | CC50 ([5]; line of HRV-3) | CC50 ([5]; line of HRV-9) | CC50 ([5]; line of HRV-16) | CC50 ([5]; line of HRV-25) | CC50 ([5]; line of HRV-39) | other results
CCOC(=O)/C=C/[C@H](CCC(N)=O)NC(=O)[C@H](Cc1ccccc1)n1cccc(NC(=O)C2SCCS2)c1=O [Compound 10, trans-(2′S,4S)-6-Carbamoyl-4-(2′-{3″-[([1′″,3′″]dithiolane-2′″-carbonyl)amino]-2″-oxo-2″H-pyridin-1″-yl}-3′-phenylpropionylamino)hex-2-enoic Acid Ethyl Ester] | 113000 M⁻¹ s⁻¹ | 1180 nM | 1410 nM | > 10000 nM | > 10000 nM | > 10000 nM | – | – | – | – | – | – | – | – | – | – | – | – | – | – | EC50 ([2]; HRV-14, read-out: EC50): 104 nM
CCOC(=O)/C=C/[C@H](C[C@@H]1CCNC1=O)NC(=O)[C@H](Cc1ccc(F)cc1)n1cccc(NC(=O)c2cc(C)on2)c1=O [Compound 25, trans-(2′S,3′″″S,4S)-4-(3′-(4″-Fluorophenyl)-2′-{3′″-[(5″″-methylisoxazole-3″″-carbonyl)amino]-2′-oxo-2′″H-pyridin-1′″-yl}propionylamino)-5-(2′″″-oxopyrrolidin-3′″″-yl)pent-2-enoic Acid Ethyl Ester] | 1.25e+06 M⁻¹ s⁻¹ | 15 nM | 4 nM | > 10000 nM | > 10000 nM | > 10000 nM | 2 nM | 4 nM | 4 nM | 10 nM | 5 nM | 22 nM | 9 nM | 8 nM | > 10000 nM | > 10000 nM | > 10000 nM | > 10000 nM | > 10000 nM | > 10000 nM | CC50 ([5]; line of HRV-87): > 10000 nM
CC[C@@H](C(=O)N[C@H](/C=C/C(=O)OC1CCCC1)C[C@@H]1CCNC1=O)n1cccc(NC(=O)c2cc(Cl)on2)c1=O [Compound 29, trans-(2′S,3″″S,4S)-4-(2′-{3″-[(5′″-Chloroisoxazole-3′″-carbonyl)amino]-2″-oxo-2″H-pyridin-1″-yl}butyrylamino)-5-(2″″-oxopyrroldin-3″″-yl)pent-2-enoic Acid Cyclopentyl Ester] | 148000 M⁻¹ s⁻¹ | 46 nM | 46 nM | > 10000 nM | > 10000 nM | > 10000 nM | 79 nM | – | – | – | – | – | – | – | – | – | – | – | – | – | –
CC[C@@H](C(=O)N[C@H](/C=C/C(=O)OC(C)(C)C)C[C@@H]1CCNC1=O)n1cccc(NC(=O)c2cc(C)on2)c1=O [Compound 34, trans-(2′S,3″″S,4S)-4-(2′-{3″-[(5′″-Methylisoxazole-3′″-carbonyl)amino]-2″-oxo-2″H-pyridin-1″-yl}butyrylamino)-5-(2″″-oxopyrrolidin-3″″-yl)pent-2-enoic Acid tert-Butyl Ester] | 45100 M⁻¹ s⁻¹ | – | – | > 10000 nM | – | – | 122 nM | 154 nM | 61 nM | 593 nM | 543 nM | 923 nM | 441 nM | 33 nM | > 10000 nM | > 10000 nM | > 10000 nM | > 10000 nM | > 10000 nM | > 10000 nM | CC50 ([5]; line of HRV-87): > 10000 nM

Source: patent publication US6514997B2, “Antipicornaviral compounds and compositions, their pharmaceutical uses, and materials for their synthesis” (Agouron Pharmaceuticals, Inc., priority 1999, dated 2003)
